Each block holds one compound with its values, some of them ahead of it.
How the values were obtained:
5-HT3 (h) = 5-HT3 (h) (Homo sapiens (Human), UniProt P46098); experiment: ExpresSProfile: 5-hydroxytryptamine channel 3, antagonist radioligand; assay type: binding; conditions: Reference Compound
Cl-channel (GABA-gated) = experiment: ExpresSProfile: Cl-channel, antagonist radioligand; assay type: binding; conditions: Reference Compound
NK3 (h) = NK3 (h) (Homo sapiens (Human), UniProt P29371); experiment: ExpresSProfile: neurokinin receptor 3, antagonist radioligand; assay type: binding; conditions: Reference Compound
sst (non-selective) = experiment: ExpresSProfile: somatostatin receptor, agonist radioligand; assay type: binding; conditions: Reference Compound
EP4 (h) = EP4 (h) (Homo sapiens (Human), UniProt P35408); experiment: ExpresSProfile: prostaglandin e receptor type 4, agonist radioligand; assay type: binding; conditions: Reference Compound
M2 (h) = M2 (h) (Homo sapiens (Human), UniProt P08172); experiment: ExpresSProfile: muscarinic receptor 2, antagonist radioligand; assay type: binding; conditions: Reference Compound
alpha 1 (non-selective) = experiment: ExpresSProfile: alpha1 adrenergic receptor, antagonist radioligand; assay type: binding; conditions: Reference Compound
MT1 (ML1A) (h) = MT1 (ML1A) (h) (Homo sapiens (Human), UniProt P48039); experiment: ExpresSProfile: melatonin receptor 1, agonist radioligand; assay type: binding; conditions: Reference Compound
NTR1 [1] = target: T1, NTR1 (Homo sapiens (Human), UniProt P30989); experiment: Radioligand binding assay NTR1 (example part II); conditions: 0.05 nM 125I-(Tyr3-neurotensin), 60 min at 4° C.; read-out: IC50 [nM] RLB
Experimental: In order to determine the binding affinity of compounds comprising a radiolabel for NTR1, a radioligand binding assay was carried out. A radioligand is a radioactive biochemical substance that is used for diagnosis or for research-oriented study of cellular receptor systems of the body. In […] systems it is often used to quantify the binding of a test molecule to the binding site of radioligand. The higher the affinity of the molecule, the more radioligand is displaced from the binding site. The amount of bound radioligand can be measured by scintillation counting and thereby quantified. This assay is commonly used to calculate binding constants of molecules to receptors.
The NTR1 radioligand binding assay was performed by Cerep (Celle l'Evescault, France; Catalog reference 0109) according to Vita et al., FEBS Lett., 1993, 317, 139-142. NTR1 was prepared from CHO cells recombinantly expressing the human receptor and incubated with 0.05 nM ^125I-(Tyr^3-neurotensin) and serial dilutions of the test compounds. […] The result for each test compound is expressed as IC50 concentration and provides a measure for the affinity of the test compound for NTR1.

NTR1 [2] = target: T1, NTR1; experiment: Functional Ca2+ mobilisation assay (example part II); assay type: cell-based; conditions: antagonist assay
Description: Ca^2+ ions are usually kept at nanomolar levels in the cytosol of cells, and act in a number of signal transduction pathways as second messengers. […] Changes in calcium ion concentration in standard assay protocols can be readily detected with fluorescent dyes that emit light when changes in intracellular Ca2^+ ion concentration occur. Given the transient nature of these responses, they are often read with instrumentation that has ‘inject and read’ capability.
HT29 or NTR1-expressing HEK293 cells were trypsinized and seeded into black flat clear-bottom 96-well plates (Corning, Amsterdam, The Netherlands) at 6×10^5 cells per well. After 24 h incubation at 37° C. and 5% CO2, cells were washed twice with wash buffer (130 mM NaCl, 5 mM KCl, 10 mM Hepes, 2 mM CaCl2, 10 mM Glucose, pH 7.4) and loaded with 100 μl of Ca5 dye (Molecular Devices, Biberach, Germany) for 1 h at 37° C. and 5% CO2. For agonist assays, serial dilutions of agonistic substances were added to the cells loaded with dye and the change of the fluorescent signal was recorded continually for approx. 90 s using a FlexStation II (Molecular Devices, Biberach, Germany). Addition of wash buffer served as a control. Thus, EC50 concentrations for each compound were computed and provided a measure for the potency of the substance. For antagonist assays, cells loaded with 100 μl of Ca5-dye were pre-incubated with serial dilutions of antagonistic substances for 30 min, before the EC80-concentration of agonist was added to the cells and the change of the fluorescent signal was recorded continually for approx. 90 s. Thus, IC50 concentrations were computed for each compound and provided a measure for the inhibitory activity of the compounds at the NTR1.

mu (MOP) (h) = mu (MOP) (h) (Homo sapiens (Human), UniProt P35372); experiment: ExpresSProfile: mu opioid receptor, agonist radioligand; assay type: binding; conditions: Reference Compound
M3 (h) = M3 (h) (Homo sapiens (Human), UniProt P20309); experiment: ExpresSProfile: muscarinic receptor 3, antagonist radioligand; assay type: binding; conditions: Reference Compound
KV channel = experiment: ExpresSProfile: KV channel, antagonist radioligand; assay type: binding; conditions: Reference Compound
5-HT2A (h) = 5-HT2A (h) (Homo sapiens (Human), UniProt P28223); experiment: ExpresSProfile: 5-hydroxytryptamine receptor 2A, antagonist radioligand; assay type: binding; conditions: Reference Compound
5-HT2B (h) = 5-HT2B (h) (Homo sapiens (Human), UniProt P41595); experiment: ExpresSProfile: 5-hydroxytryptamine receptor 2B, agonist radioligand; assay type: binding; conditions: Reference Compound
SKCa channel = experiment: ExpresSProfile: SKCa channel, antagonist radioligand; assay type: binding; conditions: Reference Compound
5-HT1B = 5-HT1B (Rattus norvegicus, UniProt P28564); experiment: ExpresSProfile: 5-hydroxytryptamine receptor 1B, antagonist radioligand; assay type: binding; conditions: Reference Compound
5-HT6 (h) = 5-HT6 (h) (Homo sapiens (Human), UniProt P50406); experiment: ExpresSProfile: 5-hydroxytryptamine receptor 6, agonist radioligand; assay type: binding; conditions: Reference Compound
dopamine transporter (h) = dopamine transporter (h) (Homo sapiens (Human), UniProt Q01959); experiment: ExpresSProfile: dopamine transporter, antagonist radioligand; assay type: binding; conditions: Reference Compound
NK2 (h) = NK2 (h) (Homo sapiens (Human), UniProt P21452); experiment: ExpresSProfile: neurokinin receptor 2, agonist radioligand; assay type: binding; conditions: Reference Compound
Sequence of NK2 (h) (P21452 whole entry): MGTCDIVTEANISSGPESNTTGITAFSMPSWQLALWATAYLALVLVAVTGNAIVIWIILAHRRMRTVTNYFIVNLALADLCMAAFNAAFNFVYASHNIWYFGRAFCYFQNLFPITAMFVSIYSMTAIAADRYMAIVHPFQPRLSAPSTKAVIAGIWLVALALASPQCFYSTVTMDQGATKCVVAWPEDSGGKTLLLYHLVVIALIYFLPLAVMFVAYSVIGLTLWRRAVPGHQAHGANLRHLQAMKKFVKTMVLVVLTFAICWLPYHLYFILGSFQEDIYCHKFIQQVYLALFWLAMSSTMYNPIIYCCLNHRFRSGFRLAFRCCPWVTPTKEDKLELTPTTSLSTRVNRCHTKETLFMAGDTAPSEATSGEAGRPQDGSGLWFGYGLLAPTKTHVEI

T1 sequence (P30989 whole entry): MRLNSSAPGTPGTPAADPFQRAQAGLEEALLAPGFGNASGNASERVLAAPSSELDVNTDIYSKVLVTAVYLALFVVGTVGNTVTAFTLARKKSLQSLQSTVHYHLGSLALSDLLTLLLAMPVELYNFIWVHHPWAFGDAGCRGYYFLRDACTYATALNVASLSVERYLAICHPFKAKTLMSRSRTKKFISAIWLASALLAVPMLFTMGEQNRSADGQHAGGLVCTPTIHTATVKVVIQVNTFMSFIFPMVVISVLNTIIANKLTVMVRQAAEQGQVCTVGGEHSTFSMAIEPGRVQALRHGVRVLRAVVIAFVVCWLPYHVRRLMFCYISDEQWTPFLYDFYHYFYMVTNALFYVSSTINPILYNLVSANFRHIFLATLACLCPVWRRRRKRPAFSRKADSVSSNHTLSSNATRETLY
Sequence of 5-HT2B (h) (P41595 whole entry): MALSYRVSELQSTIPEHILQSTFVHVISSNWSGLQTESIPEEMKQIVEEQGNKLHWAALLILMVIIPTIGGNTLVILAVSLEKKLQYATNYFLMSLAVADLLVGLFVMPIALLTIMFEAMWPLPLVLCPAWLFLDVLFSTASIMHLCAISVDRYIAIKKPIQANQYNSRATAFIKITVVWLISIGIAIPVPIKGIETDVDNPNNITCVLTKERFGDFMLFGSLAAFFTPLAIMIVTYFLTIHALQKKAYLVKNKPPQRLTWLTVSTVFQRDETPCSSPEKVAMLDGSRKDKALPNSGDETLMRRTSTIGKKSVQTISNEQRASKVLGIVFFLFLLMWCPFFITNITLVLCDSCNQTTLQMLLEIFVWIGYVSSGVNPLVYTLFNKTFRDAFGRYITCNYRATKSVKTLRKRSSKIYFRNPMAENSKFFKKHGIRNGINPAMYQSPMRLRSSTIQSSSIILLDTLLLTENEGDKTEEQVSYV
Sequence of NK3 (h) (P29371 whole entry): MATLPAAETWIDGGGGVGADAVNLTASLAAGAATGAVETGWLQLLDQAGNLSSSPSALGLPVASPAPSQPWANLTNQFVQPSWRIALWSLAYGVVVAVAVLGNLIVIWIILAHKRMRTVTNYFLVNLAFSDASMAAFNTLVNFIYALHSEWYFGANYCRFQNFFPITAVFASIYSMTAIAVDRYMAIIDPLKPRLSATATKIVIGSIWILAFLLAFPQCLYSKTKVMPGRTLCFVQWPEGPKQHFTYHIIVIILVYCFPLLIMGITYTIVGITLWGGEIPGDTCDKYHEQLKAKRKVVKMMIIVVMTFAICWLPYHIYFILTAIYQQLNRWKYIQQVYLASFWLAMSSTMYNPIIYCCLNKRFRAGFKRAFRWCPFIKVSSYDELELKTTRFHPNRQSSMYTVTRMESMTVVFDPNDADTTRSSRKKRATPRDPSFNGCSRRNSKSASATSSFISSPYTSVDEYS
Sequence of EP4 (h) (P35408 whole entry): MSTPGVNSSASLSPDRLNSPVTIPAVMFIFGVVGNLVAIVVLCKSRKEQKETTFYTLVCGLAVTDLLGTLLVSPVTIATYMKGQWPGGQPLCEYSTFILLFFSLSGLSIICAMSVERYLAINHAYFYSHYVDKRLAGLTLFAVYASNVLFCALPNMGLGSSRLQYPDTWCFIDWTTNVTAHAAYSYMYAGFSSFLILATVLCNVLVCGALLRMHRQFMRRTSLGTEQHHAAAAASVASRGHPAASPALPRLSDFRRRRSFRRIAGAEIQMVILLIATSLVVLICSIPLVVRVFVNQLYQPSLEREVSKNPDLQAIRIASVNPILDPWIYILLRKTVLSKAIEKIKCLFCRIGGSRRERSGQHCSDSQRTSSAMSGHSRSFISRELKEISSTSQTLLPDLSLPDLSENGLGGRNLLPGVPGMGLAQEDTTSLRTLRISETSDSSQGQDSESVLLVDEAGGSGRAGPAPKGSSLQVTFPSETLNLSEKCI
Sequence of MT1 (ML1A) (h) (P48039 whole entry): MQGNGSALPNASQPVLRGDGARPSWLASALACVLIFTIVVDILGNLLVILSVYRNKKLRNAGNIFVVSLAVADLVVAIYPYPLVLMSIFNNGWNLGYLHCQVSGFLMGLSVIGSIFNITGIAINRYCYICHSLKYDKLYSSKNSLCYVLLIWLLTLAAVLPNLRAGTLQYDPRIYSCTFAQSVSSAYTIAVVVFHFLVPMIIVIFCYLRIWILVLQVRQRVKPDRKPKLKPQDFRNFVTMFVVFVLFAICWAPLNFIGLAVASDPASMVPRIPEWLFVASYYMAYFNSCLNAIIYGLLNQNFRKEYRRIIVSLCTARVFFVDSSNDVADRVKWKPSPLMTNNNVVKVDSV
Sequence of 5-HT2A (h) (P28223 whole entry): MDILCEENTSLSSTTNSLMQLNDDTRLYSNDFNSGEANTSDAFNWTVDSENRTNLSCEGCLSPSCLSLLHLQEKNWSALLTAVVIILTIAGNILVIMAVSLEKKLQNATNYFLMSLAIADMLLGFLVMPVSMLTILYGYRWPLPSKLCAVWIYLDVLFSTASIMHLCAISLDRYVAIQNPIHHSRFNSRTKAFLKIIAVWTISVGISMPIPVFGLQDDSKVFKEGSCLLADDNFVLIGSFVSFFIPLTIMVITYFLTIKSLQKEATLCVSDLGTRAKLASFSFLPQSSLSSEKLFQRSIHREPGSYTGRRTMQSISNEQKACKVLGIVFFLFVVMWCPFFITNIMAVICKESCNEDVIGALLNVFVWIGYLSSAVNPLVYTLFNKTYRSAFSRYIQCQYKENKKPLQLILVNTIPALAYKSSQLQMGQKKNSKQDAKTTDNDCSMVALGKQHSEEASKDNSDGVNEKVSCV
Sequence of 5-HT6 (h) (P50406 whole entry): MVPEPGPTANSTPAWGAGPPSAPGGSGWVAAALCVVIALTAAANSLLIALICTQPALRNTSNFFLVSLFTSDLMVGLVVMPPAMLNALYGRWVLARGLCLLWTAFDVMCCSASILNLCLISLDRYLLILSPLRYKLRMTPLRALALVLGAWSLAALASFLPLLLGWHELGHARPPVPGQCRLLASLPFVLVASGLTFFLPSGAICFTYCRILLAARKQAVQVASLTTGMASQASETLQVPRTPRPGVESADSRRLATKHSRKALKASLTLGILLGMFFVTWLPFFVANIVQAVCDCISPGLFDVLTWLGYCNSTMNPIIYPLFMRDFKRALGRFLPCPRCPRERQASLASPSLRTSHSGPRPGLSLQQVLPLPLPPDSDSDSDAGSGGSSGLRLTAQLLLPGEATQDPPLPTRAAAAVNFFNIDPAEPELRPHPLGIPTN
Sequence of dopamine transporter (h) (Q01959 whole entry): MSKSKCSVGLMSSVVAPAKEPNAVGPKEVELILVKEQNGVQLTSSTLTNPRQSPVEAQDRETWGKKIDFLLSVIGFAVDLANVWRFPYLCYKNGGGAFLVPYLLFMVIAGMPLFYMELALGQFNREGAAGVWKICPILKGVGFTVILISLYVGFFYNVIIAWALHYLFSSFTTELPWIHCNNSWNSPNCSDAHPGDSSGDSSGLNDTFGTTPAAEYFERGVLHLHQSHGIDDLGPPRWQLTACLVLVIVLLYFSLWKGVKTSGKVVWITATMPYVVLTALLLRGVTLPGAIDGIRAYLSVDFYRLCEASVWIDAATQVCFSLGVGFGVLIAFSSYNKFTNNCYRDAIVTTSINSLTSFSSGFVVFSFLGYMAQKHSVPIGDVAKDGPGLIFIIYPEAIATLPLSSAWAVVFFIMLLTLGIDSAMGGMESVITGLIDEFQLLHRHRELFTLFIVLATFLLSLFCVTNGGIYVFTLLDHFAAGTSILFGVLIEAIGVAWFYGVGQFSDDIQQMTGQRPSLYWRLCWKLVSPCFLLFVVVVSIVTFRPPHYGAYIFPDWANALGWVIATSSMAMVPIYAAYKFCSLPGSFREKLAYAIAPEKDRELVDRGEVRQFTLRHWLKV
Sequence of 5-HT3 (h) (P46098 24-478): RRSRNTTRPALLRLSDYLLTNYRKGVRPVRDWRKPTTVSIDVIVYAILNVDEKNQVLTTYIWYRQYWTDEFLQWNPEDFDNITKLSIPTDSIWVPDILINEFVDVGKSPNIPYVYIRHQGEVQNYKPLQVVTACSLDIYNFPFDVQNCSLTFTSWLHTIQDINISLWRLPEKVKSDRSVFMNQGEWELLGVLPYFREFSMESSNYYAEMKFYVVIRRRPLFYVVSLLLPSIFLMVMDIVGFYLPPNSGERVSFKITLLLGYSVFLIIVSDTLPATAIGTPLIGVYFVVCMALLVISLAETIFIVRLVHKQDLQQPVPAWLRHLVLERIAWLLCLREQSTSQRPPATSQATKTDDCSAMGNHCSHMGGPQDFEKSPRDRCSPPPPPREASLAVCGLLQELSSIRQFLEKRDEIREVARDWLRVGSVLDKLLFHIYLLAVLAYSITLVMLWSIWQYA

Compound: CN1[C@@H]2CC[C@H]1C[C@@H](OC(=O)c1cc(Cl)cc(Cl)c1)C2 [MDL 72222]
nH Ref (5-HT3 (h)): 0.8

Compound: C=C(C)[C@@H]1[C@H]2OC(=O)[C@@H]1[C@]1(O)C[C@H]3O[C@]34C(=O)O[C@H]2[C@]14C [picrotoxinin]
nH Ref (Cl-channel (GABA-gated)): 0.9

nH Ref (NK3 (h)): 0.9
Compound: CC[C@H](NC(=O)c1c(C)c(-c2ccccc2)nc2ccccc12)c1ccccc1 [SB 222200]

Compound: somatostatin-14
nH Ref (sst (non-selective)): 0.8
Ki (sst (non-selective); read-out: Ki Ref): 0.11 nM

nH Ref (EP4 (h)): 1.1
Compound: CCCCC[C@H](O)/C=C/[C@H]1[C@H](O)CC(=O)[C@@H]1C/C=C\CCCC(=O)O [PGE2]

Compound: COc1ccccc1CNCCCCCCNCCCCCCCCNCCCCCCNCc1ccccc1OC [methoctramine]
nH Ref (M2 (h)): 0.9

Compound: COc1cc2nc(N3CCN(C(=O)c4ccco4)CC3)nc(N)c2cc1OC [prazosin]
nH Ref (alpha 1 (non-selective)): 1.2

nH Ref (MT1 (ML1A) (h)): 0.9
Compound: COc1ccc2[nH]cc(CCNC(C)=O)c2c1 [melatonin]

IC50 (NTR1 [1]): 5.7 nM
IC50 (NTR1 [2]): 11.8 nM
Compound: COc1cccc(OC)c1-c1cc(C(=O)NC2(C(=O)O)C3CC4CC(C3)CC2C4)nn1-c1ccc(C(=O)N(C)CCCN(C)CCCN(C)C(=O)CCCCCNC(=O)CN2CCN(CC(=O)O)CCN(CC(=O)O)CCN(CC(=O)O)CC2)cc1C(C)C (centres unmarked) [(IIIc), 2-{[1-(4-{[3-({3-[(DOTA-Ahx)-methyl-amino]-propyl}-methyl-amino)-propyl]-methyl-carbamoyl}-2-isopropyl-phenyl)-5-(2,6-dimethoxy-phenyl)-1H-pyrazole-3-carbonyl]-amino}-adamantane-2-carboxylic acid]

Compound: C[C@@H](NC(=O)[C@@H](N)Cc1ccc(O)cc1)C(=O)NCC(=O)N(C)[C@@H](Cc1ccccc1)C(=O)NCCO [DAMGO]
nH Ref (mu (MOP) (h)): 1.0

IC50 (NTR1 [1]): 4.9 nM
IC50 (NTR1 [2]): 21.4 nM
Compound: COc1cccc(OC)c1-c1cc(C(=O)NC2(C(=O)O)C3CC4CC(C3)CC2C4)nn1-c1ccc(C(=O)N(C)CCCN(C)CCCN(C)C(=O)CCC(=O)NCCCOCCOCCOCCCNC(=O)CCC(C(=O)O)N2CCN(CC(=O)O)CCN(CC(=O)O)CC2)cc1C(C)C (centres unmarked) [(IIIe), 2-{[1-(4-{[3-({3-[(NODAGA-Ttds)-methyl-amino]-propyl}-methyl-amino)-propyl]-methyl-carbamoyl}-2-isopropyl-phenyl)-5-(2,6-dimethoxy-phenyl)-1H-pyrazole-3-carbonyl]-amino}-adamantane-2-carboxylic acid]

IC50 (NTR1 [1]): 5.3 nM
IC50 (NTR1 [2]): 8.95 nM
Compound: COc1cccc(OC)c1-c1cc(C(=O)NC2(C(=O)O)C3CC4CC(C3)CC2C4)nn1-c1ccc(C(=O)N(CCCN)CCCN(C)C)cc1C(C)C (centres unmarked) [(V), 2-{[1-{4-[(3-Amino-propyl)-(3-dimethylamino-propyl)-carbamoyl]-2-isopropyl-phenyl}-5-(2,6-dimethoxy-phenyl)-1H-pyrazole-3-carbonyl]-amino}-adamantane-2-carboxylic acid]

IC50 (NTR1 [1]): 3 nM
IC50 (NTR1 [2]): 17.5 nM
Compound: COc1cccc(OC)c1-c1cc(C(=O)NC2(C(=O)O)C3CC4CC(C3)CC2C4)nn1-c1ccc(C(=O)N(C)CCCN(C)CCCN(C)C(=S)Nc2ccc(NC(=S)NCCCCCN(O)C(=O)CCC(=O)NCCCCCN(O)C(=O)CCC(=O)NCCCCCN(O)C(C)=O)cc2)cc1C(C)C (centres unmarked) [(IIIf), 2-({5-(2,6-Dimethoxy-phenyl)-1-[2-isopropyl-4-(methyl-{3-[methyl-(3-{1-methyl-3-[4-(3-DFO-thioureido)-phenyl]-thioureido}-propyl)-amino]-propyl}-carbamoyl)-phenyl]-1H-pyrazole-3-carbonyl}-amino)-adamantane-2-carboxylic]

Compound: COc1cccc(OC)c1-c1cc(C(=O)NC2(C(=O)O)C3CC4CC(C3)CC2C4)nn1-c1ccc(C(=O)N(C)CCCN(C)CCCN(C)C(=O)CCC(=O)NCCCOCCOCCOCCCNC(=O)CN2CCN(CC(=O)O)CCN(CC(=O)O)CCN(CC(=O)O)CC2)cc1C(C)C (centres unmarked) [(IIIb), 2-{[1-(4-{[3-({3-[(DOTA-Ttds)-methyl-amino]-propyl}-methyl-amino)-propyl]-methyl-carbamoyl}-2-isopropyl-phenyl)-5-(2,6-dimethoxy-phenyl)-1H-pyrazole-3-carbonyl]-amino}-adamantane-2-carboxylic acid]
IC50 (NTR1 [1]): 5.2 nM
IC50 (NTR1 [2]): 16.6 nM

Compound: C[N+]1(C)CCC(OC(=O)C(c2ccccc2)c2ccccc2)CC1.[I-] [Compound 4-DAMP]
nH Ref (M3 (h)): 1.1

IC50 (NTR1 [1]): 2.3 nM
IC50 (NTR1 [2]): 14.5 nM
Compound: COc1cccc(OC)c1-c1cc(C(=O)NC2(C(=O)O)C3CC4CC(C3)CC2C4)nn1-c1ccc(C(=O)N(C)CCCN(C)CCCN(C)C(=O)c2ccc(F)cc2)cc1C(C)C (centres unmarked) [(IIIg), 2-{[5-(2,6-Dimethoxy-phenyl)-1-(4-{[3-({3-[(4-fluoro-benzoyl)-methyl-amino]-propyl}-methyl-amino)-propyl]-methyl-carbamoyl}-2-isopropyl-phenyl)-1H-pyrazole-3-carbonyl]-amino}-adamantane-2-carboxylic acid]

Compound: alpha-dendrotoxin (QPRRKLCILHRNPGRCYDKIPAFYYNQKKKQCERFDWSGCGGNSNRFKTIEECRRTCIG)
nH Ref (KV channel): 1.7
Ki (KV channel; read-out: Ki Ref): 0.2 nM

nH Ref (5-HT2A (h)): 1.0
Compound: O=C(c1ccc(F)cc1)C1CCN(CCn2c(=O)[nH]c3ccccc3c2=O)CC1 [ketanserin]

Compound: COc1cc(CC(C)N)c(OC)cc1I (racemic) [(±)DOI]
nH Ref (5-HT2B (h)): 1.0
Ki (5-HT2B (h); read-out: Ki Ref): 3.1 nM

Compound: CC(C)C[C@@H]1NC(=O)[C@H](C)NC(=O)[C@H]([C@@H](C)O)NC(=O)[C@H](CCC(=O)O)NC(=O)[C@@H]2CCCN2C(=O)[C@H](C)NC(=O)[C@H](CCCCN)NC(=O)[C@@H]2CSSC[C@@H](C(=O)N[C@@H](CCC(N)=O)C(=O)N[C@@H](CCC(N)=O)C(=O)N[C@@H](Cc3cnc[nH]3)C(N)=O)NC(=O)[C@H](CCCNC(=N)N)NC(=O)[C@H](CCCNC(=N)N)NC(=O)[C@H](C)NC(=O)[C@H](CSSC[C@H](N)C(=O)N[C@@H](CC(N)=O)C(=O)N2)NC1=O [apamin]
nH Ref (SKCa channel): 1.3

nH Ref (5-HT1B): 0.9
nH Ref (5-HT6 (h)): 0.8
Compound: NCCc1c[nH]c2ccc(O)cc12 [serotonin]

Compound: c1ccc2sc(C3(N4CCCCC4)CCCCC3)cc2c1 [BTCP]
nH Ref (dopamine transporter (h)): 1.0

Compound: COc1cccc(OC)c1-c1cc(C(=O)NC2(C(=O)O)C3CC4CC(C3)CC2C4)nn1-c1ccc(C(=O)N(CCCNC(=O)CCC(=O)NCCCOCCOCCOCCCNC(=O)CN2CCN(CC(=O)O)CCN(CC(=O)O)CCN(CC(=O)O)CC2)CCCN(C)C)cc1C(C)C (centres unmarked) [(Vb), 2-{[5-(2,6-Dimethoxy-phenyl)-1-(4-{(3-dimethylamino-propyl)-[3-(DOTA-Ttds-amino)-propyl]-carbamoyl}-2-isopropyl-phenyl)-1H-pyrazole-3-carbonyl]-amino}-adamantane-2-carboxylic]
IC50 (NTR1 [1]): 2.4 nM
IC50 (NTR1 [2]): 26 nM

Compound: CCCC[C@H](NC(=O)[C@H](CC(C)C)NC(=O)CNC(=O)[C@@H](NC(=O)[C@H](Cc1ccccc1)NC(=O)[C@H](CO)NC(=O)[C@@H](N)CC(=O)O)C(C)C)C(N)=O [[Nleu10]-NKA (4-10)]
nH Ref (NK2 (h)): 0.8
